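Protocol summary: plate cells (96-well), add compound at 5 concentrations, incubate 48 h, interpolate endpoints linearly. GI50 is the concentration that inhibits growth by half.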 Activity calls are given as the source filed them. No stated cut-off is given here; in the data, active = GI50 up to about 1.1 µM and inactive = higher.
What was measured:
Experiment in all cases: NCI-60 cell line screen, 48 h
SNB-19 = system: SNB-19
MOLT-4 = system: MOLT-4
T47D = system: T47D
786-0 = system: 786-0
ACHN = system: ACHN
MDA-MB-435 = system: MDA-MB-435
NCI/ADR-RES = system: NCI/ADR-RES
SK-MEL-5 = system: SK-MEL-5
SW-620 = system: SW-620
Malme-3M = system: Malme-3M
HT-29 = system: HT-29
SNB-75 = system: SNB-75
RPMI-8226 = system: RPMI-8226
SF-268 = system: SF-268
HL-60 = system: HL-60
SF-295 = system: SF-295
HOP-92 = system: HOP-92
MDA-N = system: MDA-N
NCI-H460 = system: NCI-H460
CCRF-CEM = system: CCRF-CEM

Compound	GI50 (SNB-19)	GI50 (MOLT-4)	GI50 (T47D)	GI50 (786-0)	GI50 (ACHN)	GI50 (MDA-MB-435)	GI50 (NCI/ADR-RES)	GI50 (SK-MEL-5)	GI50 (SW-620)	GI50 (Malme-3M)	GI50 (HT-29)	GI50 (SNB-75)	GI50 (RPMI-8226)	GI50 (SF-268)	GI50 (HL-60)	GI50 (SF-295)	GI50 (HOP-92)	GI50 (MDA-N)	GI50 (NCI-H460)	GI50 (CCRF-CEM)
O=C1c2ccccc2C(C2c3ccccc3C(=O)c3cc(Br)ccc32)c2ccc(Br)cc21 (configuration not stated)	> 100 µM (inactive)	61 µM (inactive)	> 100 µM (inactive)	> 100 µM (inactive)	> 100 µM (inactive)	> 100 µM (inactive)	> 100 µM (inactive)	> 100 µM (inactive)	> 100 µM (inactive)	> 100 µM (inactive)	> 100 µM (inactive)	> 100 µM (inactive)	> 100 µM (inactive)	> 100 µM (inactive)	< 0.01 µM (active)	> 100 µM (inactive)	> 100 µM (inactive)	> 100 µM (inactive)	–	–
O=c1[nH]c(=O)n([C@@H]2O[C@H](CO)[C@@H](O)[C@@H]2F)cc1I [FIALURIDINE]	> 100 µM (inactive)	56 µM (inactive)	> 100 µM (inactive)	> 100 µM (inactive)	> 100 µM (inactive)	> 100 µM (inactive)	> 100 µM (inactive)	> 100 µM (inactive)	> 100 µM (inactive)	> 100 µM (inactive)	> 100 µM (inactive)	> 100 µM (inactive)	–	> 100 µM (inactive)	> 100 µM (inactive)	> 100 µM (inactive)	> 100 µM (inactive)	> 100 µM (inactive)	24 µM (inactive)	4.8 µM (inactive)
Cn1c(-c2c(C3=CC(=O)N(c4ccccc4)C3=O)c3ccccc3n2C)cc2ccccc21	> 100 µM (inactive)	58.7 µM (inactive)	> 100 µM (inactive)	> 100 µM (inactive)	> 100 µM (inactive)	> 100 µM (inactive)	> 100 µM (inactive)	> 100 µM (inactive)	> 100 µM (inactive)	7.41 µM (inactive)	> 100 µM (inactive)	55.8 µM (inactive)	92.7 µM (inactive)	–	45.1 µM (inactive)	34.1 µM (inactive)	> 100 µM (inactive)	> 100 µM (inactive)	> 100 µM (inactive)	18.9 µM (inactive)
N#Cc1c(N)n(-c2cccc(C(=O)O)c2)c(=O)c2cc([N+](=O)[O-])ccc12	> 100 µM (inactive)	–	> 100 µM (inactive)	> 100 µM (inactive)	> 100 µM (inactive)	> 100 µM (inactive)	> 100 µM (inactive)	> 100 µM (inactive)	> 100 µM (inactive)	–	> 100 µM (inactive)	> 100 µM (inactive)	> 100 µM (inactive)	> 100 µM (inactive)	> 100 µM (inactive)	–	> 100 µM (inactive)	> 100 µM (inactive)	> 100 µM (inactive)	–

Reference: ChEMBL document CHEMBL1201862, “PubChem BioAssay data set” (2004)
